Measurements from US11885816B2, “Personalized medicine approach for treating cognitive loss” (University of North Texas Health Science Center at Fort …, priority 2013, dated 2024).
Entries after “also recorded” stand apart in the source; their conditions may differ. Read-outs that look alike come from different tables or passages of the source.

Test system: AD patients
Settings: for disease severity (CDR Sum of Boxes [CDRSum]): treated; for change in MMSE scores over the 12 month period of the trial: treatment group
Experimental: In order to determine if the proinflammatory endophenotype predicted treatment response, baseline plasma samples were analyses from a previously conducted trial of the Alzheimer's Disease Cooperative Study (ADCS, Aisen et al 2003, JAMA).
Baseline plasma samples were assayed using enhanced chemiluminescence (ECL) for a range of inflammatory markers. The pro-inflammatory profile was generated using CRP and TNFα. Additional markers can be used to improve the already robust results shown herein. The frequency of the low, middle (referent group) and high ends of the pro-inflammatory profile are presented below.
Blood samples from a previously conducted clinical trial among AD patients was used. This trial was conducted by the Alzheimer's Disease Cooperative Study (ADCS, Aisen et al 2003, JAMA).
Baseline plasma samples were assayed using ECL for a range of inflammatory markers. The pro-inflammatory profile was generated using CRP and TNFα.

COc1ccc2cc([C@H](C)C(=O)O)ccc2c1 [naproxen]
treatment comparison of non-selective with selective NSAIDs (high end of the proinflammatory endophenotype, comparator selective NSAIDs (celecoxib)): superior treatment
disease severity (CDR Sum of Boxes [CDRSum]) (high end of the pro-inflammatory profile, compared to untreated): declined less than those who were untreated
disease severity (CDR Sum of Boxes [CDRSum]) (low end of the pro-inflammatory profile, over 12 months, compared to any other group): progressed in disease severity more rapidly
change in MMSE scores over the 12 month period of the trial (high end of the pro-inflammatory profile (group 3), compared to the low end and the referent group, listed as anti-inflammatory drug): stable over 12 months; also recorded: stable over 12 mo
change in MMSE scores over the 12 month period of the trial (low end of the pro-inflammatory profile (group 1), compared to the referent (middle) group): declined significantly faster
